The target in the assay is T1, RXFP1 (Homo sapiens, UniProt Q9HBX9).
T1 sequence (Q9HBX9 1-757): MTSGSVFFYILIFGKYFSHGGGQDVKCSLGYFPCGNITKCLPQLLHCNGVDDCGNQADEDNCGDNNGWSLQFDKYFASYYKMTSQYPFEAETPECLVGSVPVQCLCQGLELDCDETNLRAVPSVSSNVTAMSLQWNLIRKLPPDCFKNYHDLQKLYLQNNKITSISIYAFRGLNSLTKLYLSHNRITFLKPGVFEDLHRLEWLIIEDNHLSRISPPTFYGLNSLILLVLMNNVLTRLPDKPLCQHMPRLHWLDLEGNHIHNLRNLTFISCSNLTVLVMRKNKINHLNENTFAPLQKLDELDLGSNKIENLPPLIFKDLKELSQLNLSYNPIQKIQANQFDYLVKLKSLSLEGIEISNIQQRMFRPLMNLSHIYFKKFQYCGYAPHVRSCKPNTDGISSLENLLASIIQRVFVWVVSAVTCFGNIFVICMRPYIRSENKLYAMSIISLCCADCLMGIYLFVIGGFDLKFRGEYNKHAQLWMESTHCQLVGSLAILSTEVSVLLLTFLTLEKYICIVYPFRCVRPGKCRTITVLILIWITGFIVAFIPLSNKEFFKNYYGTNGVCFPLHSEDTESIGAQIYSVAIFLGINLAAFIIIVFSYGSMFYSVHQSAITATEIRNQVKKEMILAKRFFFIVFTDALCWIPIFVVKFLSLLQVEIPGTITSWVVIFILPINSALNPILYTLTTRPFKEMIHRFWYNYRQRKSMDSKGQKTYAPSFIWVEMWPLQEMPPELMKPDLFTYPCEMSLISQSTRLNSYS
Description: OVCAR5 cAMP assay (RXFP1 agonist activity, HTRF). Conditions: for Emax: OVCAR-5, read-out: cAMP assay in OVCAR 5 cells Emax, maximal intracellular cAMP relative to H2-relaxin in the same test occasion; for EC50: cAMP assay in OVCAR 5 cells EC50 (nM), OVCAR5 cells expressing endogenous RXFP1, cAMP by HTRF, 30 min at 37° C., 1 mM IBMX. For orientation: Cyclic AMP is a second messenger, typically raised through Gs and lowered through Gi signalling.

Non-standard residues stand in square brackets, D forms with d. Residues, ends and D or L forms follow the SMILES beside them. 1Nal = N[C@@H](Cc1cccc2ccccc12)C(=O)O; αMeS = C[C@](N)(CO)C(=O)O; Nle = CCCC[C@H](N)C(=O)O; Aib = CC(C)(N)C(=O)O

For `CCCC[C@H](NC(=O)CNC(=O)[C@H](CCC(=O)O)NC(=O)C(C)(C)NC(=O)C(C)(C)NC(=O)[C@@H](NC(=O)[C@H](CCC(N)=O)NC(=O)[C@H](C)NC(=O)[C@H](CCCNC(=N)N)NC(=O)[C@@H](NC(=O)[C@H](CCCCN)NC(=O)[C@H](CCC(=O)O)NC(=O)[C@H](CCCNC(=N)N)NC(=O)CNC(=O)[C@H](CCC(=O)O)NC(=O)[C@H](CC(C)C)NC(C)=O)C(C)C)[C@@H](C)CC)C(=O)N[C@@H](CO)C(=O)N[C@H](C(=O)N[C@@H](Cc1cccc2ccccc12)C(=O)N[C@@H](CO)C(=O)N[C@@H](CCCCN)C(=O)N[C@@H](CCCNC(=N)N)C(N)=O)[C@@H](C)O` [compound 37] (Ac-LEGREKVRAQI[Aib][Aib]EG[Nle]ST[1Nal]SKR-NH2), the maximal response (Emax) came to 104%.
Take `CC[C@H](C)[C@H](NC(=O)[C@H](CCC(N)=O)NC(=O)[C@H](C)NC(=O)[C@H](CCCNC(=N)N)NC(=O)[C@@H](NC(=O)[C@H](CCCCN)NC(=O)[C@H](CCC(=O)O)NC(=O)[C@H](CCCNC(=N)N)NC(=O)CNC(=O)[C@H](CCC(=O)O)NC(=O)[C@H](CC(C)C)NC(C)=O)C(C)C)C(=O)NC(C)(C)C(=O)NC(C)(C)C(=O)N[C@@H](CCC(=O)O)C(=O)NCC(=O)N[C@@H](CCSC)C(=O)N[C@@H](CO)C(=O)N[C@@H](CCCCN)C(=O)N[C@@H](Cc1c[nH]c2ccccc12)C(=O)N[C@@H](CO)C(=O)N[C@@H](CCCCN)C(=O)N[C@@H](CCCNC(=N)N)C(N)=O` [compound 38] (Ac-LEGREKVRAQI[Aib][Aib]EGMSKWSKR-NH2): the Emax worked out at 102%.
Regarding `CC[C@H](C)[C@H](NC(=O)[C@H](CCC(N)=O)NC(=O)[C@H](C)NC(=O)[C@H](CCCNC(=N)N)NC(=O)[C@@H](NC(=O)[C@H](CCCCN)NC(=O)[C@H](CCC(=O)O)NC(=O)[C@H](CCCNC(=N)N)NC(=O)CNC(=O)[C@H](CCC(=O)O)NC(=O)[C@H](CC(C)C)NC(C)=O)C(C)C)C(=O)NC(C)(C)C(=O)NC(C)(C)C(=O)N[C@@H](CCC(=O)O)C(=O)NCC(=O)N[C@@H](CCSC)C(=O)N[C@@H](CO)C(=O)N[C@@](C)(CO)C(=O)N[C@@H](Cc1c[nH]c2ccccc12)C(=O)N[C@@H](CO)C(=O)N[C@@H](CCCCN)C(=O)N[C@@H](CCCNC(=N)N)C(N)=O` [compound 39] (Ac-LEGREKVRAQI[Aib][Aib]EGMS[αMeS]WSKR-NH2), the maximum response (Emax) was 99% and a half-maximal effect (EC50) was put at 9.5 nM.
With `CC[C@H](C)[C@H](NC(=O)[C@H](CCC(N)=O)NC(=O)[C@H](C)NC(=O)[C@H](CCCNC(=N)N)NC(=O)[C@@H](NC(=O)[C@H](CCCCN)NC(=O)[C@H](CCC(=O)O)NC(=O)[C@H](CCCNC(=N)N)NC(=O)CNC(=O)[C@H](CCC(=O)O)NC(=O)[C@H](CC(C)C)NC(C)=O)C(C)C)C(=O)NC(C)(C)C(=O)NC(C)(C)C(=O)N[C@@H](CCC(=O)O)C(=O)NCC(=O)N[C@@H](CCSC)C(=O)N[C@@H](CO)C(=O)N[C@H](C(=O)N[C@@H](Cc1c[nH]c2ccccc12)C(=O)N[C@@H](CO)C(=O)N[C@@H](CCCCN)C(=O)N[C@@H](CCCNC(=N)N)C(N)=O)[C@@H](C)O` [compound 40] (Ac-LEGREKVRAQI[Aib][Aib]EGMSTWSKR-NH2), the Emax was 103%.
On to `CC[C@H](C)[C@H](NC(=O)[C@H](CCC(N)=O)NC(=O)[C@H](C)NC(=O)[C@H](CCCNC(=N)N)NC(=O)[C@@H](NC(=O)[C@H](CCCCN)NC(=O)[C@H](CCC(=O)O)NC(=O)[C@H](CCCNC(=N)N)NC(=O)CNC(=O)[C@H](CCC(=O)O)NC(=O)[C@H](CC(C)C)NC(C)=O)C(C)C)C(=O)NC(C)(C)C(=O)NC(C)(C)C(=O)N[C@@H](CCC(=O)O)C(=O)NCC(=O)N[C@@H](CCSC)C(=O)N[C@@H](CO)C(=O)N[C@H](C(=O)N[C@@H](Cc1c[nH]c2ccccc12)C(=O)N[C@@H](CO)C(=O)NC(C)(C)C(=O)N[C@@H](CCCNC(=N)N)C(N)=O)[C@@H](C)O` [compound 41] (Ac-LEGREKVRAQI[Aib][Aib]EGMSTWS[Aib]R-NH2), for which the Emax is 106%.
With `CC[C@H](C)[C@H](NC(=O)[C@H](CCC(N)=O)NC(=O)C(C)(C)NC(=O)[C@H](CCCNC(=N)N)NC(=O)[C@@H](NC(=O)[C@H](CCCCN)NC(=O)[C@H](CCC(=O)O)NC(=O)[C@H](CCCNC(=N)N)NC(=O)CNC(=O)[C@H](CCC(=O)O)NC(=O)[C@H](CC(C)C)NC(C)=O)C(C)C)C(=O)NC(C)(C)C(=O)NC(C)(C)C(=O)N[C@@H](CCC(=O)O)C(=O)NCC(=O)N[C@@H](CCSC)C(=O)N[C@@H](CO)C(=O)N[C@H](C(=O)N[C@@H](Cc1c[nH]c2ccccc12)C(=O)N[C@@H](CO)C(=O)NC(C)(C)C(=O)N[C@@H](CCCNC(=N)N)C(N)=O)[C@@H](C)O` [compound 42] (Ac-LEGREKVR[Aib]QI[Aib][Aib]EGMSTWS[Aib]R-NH2), the maximal effect (Emax) was 104% and the 50% effective concentration (EC50) was found to be 251 nM.
Regarding `CC[C@H](C)[C@H](NC(=O)C(C)(C)NC(=O)[C@H](C)NC(=O)[C@H](CCCNC(=N)N)NC(=O)[C@@H](NC(=O)[C@H](CCCCN)NC(=O)[C@H](CCC(=O)O)NC(=O)[C@H](CCCNC(=N)N)NC(=O)CNC(=O)[C@H](CCC(=O)O)NC(=O)[C@H](CC(C)C)NC(C)=O)C(C)C)C(=O)NC(C)(C)C(=O)NC(C)(C)C(=O)N[C@@H](CCC(=O)O)C(=O)NCC(=O)N[C@@H](CCSC)C(=O)N[C@@H](CO)C(=O)N[C@H](C(=O)N[C@@H](Cc1c[nH]c2ccccc12)C(=O)N[C@@H](CO)C(=O)NC(C)(C)C(=O)N[C@@H](CCCNC(=N)N)C(N)=O)[C@@H](C)O` [compound 43] (Ac-LEGREKVRA[Aib]I[Aib][Aib]EGMSTWS[Aib]R-NH2), the maximal effect (Emax) was 104%.
Same read-out and setting: the same measure for `CCCC[C@H](NC(=O)CNC(=O)[C@H](CCC(=O)O)NC(=O)C(C)(C)NC(=O)C(C)(C)NC(=O)[C@@H](NC(=O)[C@H](CCC(N)=O)NC(=O)[C@H](C)NC(=O)[C@H](CCCNC(=N)N)NC(=O)[C@@H](NC(=O)[C@H](CCCCN)NC(=O)[C@H](CCC(=O)O)NC(=O)[C@H](CCCNC(=N)N)NC(=O)CNC(=O)[C@H](CCC(=O)O)NC(=O)[C@H](CC(C)C)NC(C)=O)C(C)C)[C@@H](C)CC)C(=O)N[C@@H](CO)C(=O)N[C@H](C(=O)N[C@@H](Cc1c[nH]c2ccccc12)C(=O)N[C@@H](CO)C(=O)NC(C)(C)C(=O)N[C@@H](CCCNC(=N)N)C(=O)N[C@@H](CCCCN)C(N)=O)[C@@H](C)O` [compound 44] (Ac-LEGREKVRAQI[Aib][Aib]EG[Nle]STWS[Aib]RK-NH2): 101%; for `CC[C@H](C)[C@H](NC(=O)[C@H](CCC(N)=O)NC(=O)[C@H](C)NC(=O)[C@H](CCCNC(=N)N)NC(=O)[C@@H](NC(=O)[C@H](CCCCN)NC(=O)[C@H](CCC(=O)O)NC(=O)[C@H](CCCNC(=N)N)NC(=O)CNC(=O)[C@H](CCC(=O)O)NC(=O)[C@H](CC(C)C)NC(C)=O)C(C)C)C(=O)NC(C)(C)C(=O)NC(C)(C)C(=O)N[C@@H](CCC(=O)O)C(=O)NCC(=O)N[C@@H](CCSC)C(=O)N[C@@H](CO)C(=O)N[C@H](C(=O)N[C@@H](Cc1c[nH]c2ccccc12)C(=O)N[C@@H](CO)C(=O)NC(C)(C)C(=O)N[C@@H](CCCNC(=N)N)C(=O)N[C@@H](CCCCN)C(N)=O)[C@@H](C)O` [compound 45] (Ac-LEGREKVRAQI[Aib][Aib]EGMSTWS[Aib]RK-NH2): 98%.
On the same count and under the same terms, next, `CC[C@H](C)[C@H](NC(=O)[C@H](CCC(N)=O)NC(=O)[C@H](C)NC(=O)[C@H](CCCNC(=N)N)NC(=O)[C@@H](NC(=O)[C@H](CCCCN)NC(=O)[C@H](CCC(=O)O)NC(=O)[C@H](CCCNC(=N)N)NC(=O)CNC(=O)[C@H](CCC(=O)O)NC(=O)[C@H](CC(C)C)NC(C)=O)C(C)C)C(=O)NC(C)(C)C(=O)NC(C)(C)C(=O)N[C@@H](CCC(=O)O)C(=O)NCC(=O)N[C@@H](CCSC)C(=O)N[C@@H](CO)C(=O)N[C@@H](CCCCN)C(=O)N[C@@H](Cc1c[nH]c2ccccc12)C(=O)N[C@@H](CO)C(=O)NC(C)(C)C(=O)N[C@@H](CCCNC(=N)N)C(N)=O` [compound 46] (Ac-LEGREKVRAQI[Aib][Aib]EGMSKWS[Aib]R-NH2): 82%; `CCCC[C@H](NC(=O)CNC(=O)[C@H](CCC(=O)O)NC(=O)C(C)(C)NC(=O)C(C)(C)NC(=O)[C@@H](NC(=O)[C@H](CCCCNC(C)=O)NC(=O)[C@H](C)NC(=O)[C@H](CCCNC(=N)N)NC(=O)[C@@H](NC(=O)[C@H](CCCCN)NC(=O)[C@H](CCC(=O)O)NC(=O)[C@H](CCCNC(=N)N)NC(=O)CNC(=O)[C@H](CCC(=O)O)NC(=O)[C@H](CC(C)C)NC(C)=O)C(C)C)[C@@H](C)CC)C(=O)N[C@@H](CO)C(=O)N[C@H](C(=O)N[C@@H](Cc1c[nH]c2ccccc12)C(=O)N[C@@H](CO)C(=O)NC(C)(C)C(=O)N[C@@H](CCCNC(=N)N)C(=O)N[C@@H](CCCCN)C(N)=O)[C@@H](C)O` [compound 47] (Ac-LEGREKVRAK(Ac)I[Aib][Aib]EG[Nle]STWS[Aib]RK-NH2): 94%.

In general, Emax refers to the maximal effect, on the per cent scale that the assay sets. The EC50 is the concentration that produces a half-maximal response.
